In brackets after ≈: the same amount, converted by molar mass.
Key:
M. tuberculosis Erdman [1] = tested on: M. tuberculosis Erdman; design: species or system BALB/c mice; settings: mouse, po, 100 mg/kg
in vivo = settings: mouse, po, 40 mg/kg
[2] = tested on: M. tuberculosis bacteria in the non-replicating state; test: microbe, parasite or virus in culture; format: cell-based; settings: Mycobacterium tuberculosis, 264 h, low oxygen, 11 day, read-out: MIC LORA (anaerobic)
[3] = tested on: replicating Mycobacterium tuberculosis; test: MIC, microplate Alamar blue assay (MABA), 8 day; format: cell-based; settings: 192 h, read-out: MIC MABA (aerobic)
M. tuberculosis Erdman [4] = format: in vivo, BALB/c mice; settings: for In vivo efficacy vs PA-824, Chronic: mouse, po, 100 mg/kg
[5] = CD-1 mice, oral, 40 mg/kg; for t½ (h) plasma: suspension in 0.5% carboxymethylcellulose/0.08% Tween 80

SMILES | In vivo efficacy vs PA-824, Acute (M. tuberculosis Erdman [1]) | AUC (in vivo) | MIC [2] | MIC [3] | In vivo efficacy vs PA-824, Chronic (M. tuberculosis Erdman [4]) | Cmax plasma [5] | t½ (h) plasma [5] | log reduction in CFU (M. tuberculosis Erdman [4]; chronic assay, lungs, vs vehicle, oral 100 mg/kg) | Kp (in vivo)
O=[N+]([O-])c1cn2c(n1)OC[C@@H](OCc1ccc(-c3ccc(OC(F)(F)F)c(Cl)c3)nc1)C2 [compound 28, (6S)-6-({6-[3-Chloro-4-(trifluoromethoxy)phenyl]-3-pyridinyl}methoxy)-2-nitro-6,7-dihydro-5H-imidazo[2,1-b][1,3]oxazine] | >933 | 284 µg·h/mL | 1 µM (≈ 0.471 µg/mL) | 0.017 µM (≈ 0.008 µg/mL) | – | – | – | – | –
O=[N+]([O-])c1cn2c(n1)OC[C@@H](OCc1ccc(-c3ccc(OC(F)(F)F)cc3)cc1)C2 [compound 3, (6S)-2-Nitro-6-{[4'-(trifluoromethoxy)[1,1'-biphenyl]-4-yl]methoxy}-6,7-dihydro-5H-imidazo[2,1-b][1,3]oxazine] | >205 | 218 µg·h/mL | 1.3 µM (≈ 0.566 µg/mL) | 0.035 µM (≈ 0.0152 µg/mL) | 12 | – | – | – | –
O=[N+]([O-])c1cn2c(n1)OC[C@@H](OCc1ccc(C#Cc3ccc(OC(F)(F)F)cc3)cc1)C2 [compound 32, (6S)-2-Nitro-6-[(4-{[4-(trifluoromethoxy)phenyl]ethynyl}benzyl)oxy]-6,7-dihydro-5H-imidazo[2,1-b][1,3]oxazine] | – | – | > 128 µM | 0.017 µM (≈ 0.00781 µg/mL) | – | – | – | – | –
O=[N+]([O-])c1cn2c(n1)OC[C@@H](OCc1ccc(-c3ccc(C(F)(F)F)nc3)cc1F)C2 [compound 23, (6S)-6-({2-Fluoro-4-[6-(trifluoromethyl)-3-pyridinyl]benzyl}oxy)-2-nitro-6,7-dihydro-5H-imidazo[2,1-b][1,3]oxazine] | 8.8 | 55.4 µg·h/mL | 0.68 µM (≈ 0.298 µg/mL) | 0.13 µM (≈ 0.057 µg/mL) | – | – | – | – | –
O=[N+]([O-])c1cn2c(n1)OC[C@@H](OCc1cnn(-c3ccc(OC(F)(F)F)cc3)c1)C2 [compound 27] | – | – | 1.8 µM (≈ 0.766 µg/mL) | 0.15 µM (≈ 0.0638 µg/mL) | – | – | – | – | –
O=[N+]([O-])c1cn2c(n1)OC[C@@H](OCc1ccc(-c3ccc(F)cn3)cc1)C2 [compound 26, (6S)-6-{[4-(5-Fluoro-2-pyridinyl)benzyl]oxy}-2-nitro-6,7-dihydro-5H-imidazo[2,1-b][1,3]oxazine] | – | – | 1.3 µM (≈ 0.481 µg/mL) | 0.035 µM (≈ 0.013 µg/mL) | – | – | – | – | –
O=C(O[C@@H]1COc2nc([N+](=O)[O-])cn2C1)N1CCN(c2ccc(OC(F)(F)F)cc2)CC1 [compound 20] | 5.2 | 169 µg·h/mL | 1.1 µM (≈ 0.503 µg/mL) | 0.13 µM (≈ 0.0595 µg/mL) | – | 2500 ng/mL | 10.5 h | – | –
O=[N+]([O-])c1cn2c(n1)OC[C@@H](OC/C=C/c1ccc(-c3ccc(OC(F)(F)F)cc3)cc1)C2 [compound 19, (6S)-2-Nitro-6-({(2E)-3-[4'-(trifluoromethoxy)[1,1'-biphenyl]-4-yl]-2-propenyl}oxy)-6,7-dihydro-5H-imidazo[2,1-b][1,3]oxazine] | – | – | > 64 µM | 0.063 µM (≈ 0.0291 µg/mL) | – | – | – | – | –
O=[N+]([O-])c1cn2c(n1)OC[C@@H](OCc1ncc(-c3ccc(OC(F)(F)F)cc3)cn1)C2 [compound 29] | – | – | 1.9 µM (≈ 0.831 µg/mL) | 0.11 µM (≈ 0.0481 µg/mL) | – | – | – | – | –
O=[N+]([O-])c1cn2c(n1)OC[C@@H](OCc1ccc(-c3ccc(OC(F)(F)F)c(F)c3)nc1)C2 [compound 21, (6S)-6-({6-[3-Fluoro-4-(trifluoromethoxy)phenyl]-3-pyridinyl}methoxy)-2-nitro-6,7-dihydro-5H-imidazo[2,1-b][1,3]oxazine] | >840 | 251 µg·h/mL | 0.93 µM (≈ 0.423 µg/mL) | 0.025 µM (≈ 0.0114 µg/mL) | – | 7000 ng/mL | – | – | –
O=[N+]([O-])c1cn2c(n1)OC[C@@H](OCc1ccc(-c3ccc(C(F)(F)F)cn3)cc1F)C2 [compound 14, (6S)-6-({2-Fluoro-4-[5-(trifluoromethyl)-2-pyridinyl]benzyl}oxy)-2-nitro-6,7-dihydro-5H-imidazo[2,1-b][1,3]oxazine] | 52 | 148 µg·h/mL | 2.3 µM (≈ 1.01 µg/mL) | 0.055 µM (≈ 0.0241 µg/mL) | – | – | – | – | –
O=[N+]([O-])c1cn2c(n1)OC[C@@H](OCc1ccc(-c3ccc(OC(F)(F)F)cc3Cl)cc1)C2 [compound 1, (6S)-6-{[2'-Chloro-4'-(trifluoromethoxy)[1,1'-biphenyl]-4-yl]methoxy}-2-nitro-6,7-dihydro-5H-imidazo[2,1-b][1,3]oxazine] | 23 | 3360 µg·h/mL | 0.78 µM (≈ 0.366 µg/mL) | 0.04 µM (≈ 0.0188 µg/mL) | 2.1 | – | – | – | –
O=[N+]([O-])c1cn2c(n1)OC[C@@H](OCc1ccc(-c3ccc(OC(F)(F)F)cc3)nc1)C2 [compound 6, (6S)-2-Nitro-6-({6-[4-(trifluoromethoxy)phenyl]-3-pyridinyl}methoxy)-6,7-dihydro-5H-imidazo[2,1-b][1,3]oxazine] | >89 | 81 µg·h/mL | 0.54 µM (≈ 0.236 µg/mL) | 0.05 µM (≈ 0.0218 µg/mL) | 15 | – | 24 h | – | –
O=[N+]([O-])c1cn2c(n1)OC[C@@H](OCc1cnc(-c3ccc(OC(F)(F)F)cc3)nc1)C2 [compound 16] | >1120 | 131 µg·h/mL | 1.8 µM (≈ 0.787 µg/mL) | 0.027 µM (≈ 0.0118 µg/mL) | – | – | – | – | –
O=[N+]([O-])c1cn2c(n1)OC[C@@H](OCc1ccc(-c3ccc(OC(F)(F)F)cc3)cn1)C2 [compound 7, (6S)-2-Nitro-6-({5-[4-(trifluoromethoxy)phenyl]-2-pyridinyl}methoxy)-6,7-dihydro-5H-imidazo[2,1-b][1,3]oxazine] | 27 | 427 µg·h/mL | 3.7 µM (≈ 1.61 µg/mL) | 0.065 µM (≈ 0.0284 µg/mL) | 0.9 | – | 5.4 h | – | –
Cn1nc(-c2ccc(OC(F)(F)F)cc2)cc1CO[C@@H]1COc2nc([N+](=O)[O-])cn2C1 [compound 11] | 12 | 92.4 µg·h/mL | 0.58 µM (≈ 0.255 µg/mL) | 0.06 µM (≈ 0.0264 µg/mL) | 0.9 | – | – | – | –
O=[N+]([O-])c1cn2c(n1)OC[C@@H](OCc1ccc(C#Cc3ccc(OC(F)(F)F)cc3)nc1)C2 [compound 33, (6S)-2-Nitro-6-[(6-{[4-(trifluoromethoxy)phenyl]ethynyl}-3-pyridinyl)methoxy]-6,7-dihydro-5H-imidazo[2,1-b][1,3]oxazine] | – | – | 0.94 µM (≈ 0.433 µg/mL) | 0.02 µM (≈ 0.00921 µg/mL) | – | – | – | – | –
O=[N+]([O-])c1cn2c(n1)OC[C@@H](OCc1ccc(-c3ccc(OC(F)(F)F)cc3)c(F)c1)C2 [compound 15, (6S)-6-{[2-Fluoro-4'-(trifluoromethoxy)[1,1'-biphenyl]-4-yl]methoxy}-2-nitro-6,7-dihydro-5H-imidazo[2,1-b][1,3]oxazine] | >933 | – | 0.51 µM (≈ 0.231 µg/mL) | 0.055 µM (≈ 0.0249 µg/mL) | – | – | – | – | –
O=[N+]([O-])c1cn2c(n1)OC[C@@H](OCc1ccc(-c3ccc(C(F)(F)F)nc3)cc1)C2 [compound 9, (6S)-2-Nitro-6-({4-[6-(trifluoromethyl)-3-pyridinyl]benzyl}oxy)-6,7-dihydro-5H-imidazo[2,1-b][1,3]oxazine] | 15 | 414 µg·h/mL | 2.1 µM (≈ 0.883 µg/mL) | 0.03 µM (≈ 0.0126 µg/mL) | 4.6 | – | – | – | –
O=[N+]([O-])c1cn2c(n1)OC[C@@H](OCc1ccc(OC(F)(F)F)cc1)C2 [PA-824, reference compound] | 1.0 | 296 µg·h/mL | 2.6 µM (≈ 0.934 µg/mL) | 0.5 µM (≈ 0.18 µg/mL) | 1.0 | – | – | ~ 2 log | –
O=[N+]([O-])c1cn2c(n1)OC[C@@H](OCc1cnc(-c3ccc(OC(F)(F)F)cc3)cn1)C2 [compound 4, (6S)-2-nitro-6-({5-[4-(trifluoromethoxy)phenyl]-2-pyrazinyl}methoxy)-6,7-dihydro-5H-imidazo[2,1-b][1,3]oxazine] | 167 | > 324 µg·h/mL | 1 µM (≈ 0.437 µg/mL) | 0.023 µM (≈ 0.0101 µg/mL) | – | 9600 ng/mL | 7.2 h | – | –
O=[N+]([O-])c1cn2c(n1)OC[C@@H](OCc1ccc(-c3ccc(OC(F)(F)F)cc3)nn1)C2 [compound 24] | 11 | 93.9 µg·h/mL | 1.7 µM (≈ 0.743 µg/mL) | 0.075 µM (≈ 0.0328 µg/mL) | – | – | 2.9 h | – | –
O=[N+]([O-])c1cn2c(n1)OC[C@@H](OCc1ccc(C#Cc3ccc(OC(F)(F)F)cc3)cn1)C2 [compound 18, (6S)-2-Nitro-6-[(5-{[4-(trifluoromethoxy)phenyl]ethynyl}-2-pyridinyl)methoxy]-6,7-dihydro-5H-imidazo[2,1-b][1,3]oxazine] | >933 | 235 µg·h/mL | 1.4 µM (≈ 0.645 µg/mL) | 0.02 µM (≈ 0.00921 µg/mL) | – | – | – | – | –
O=[N+]([O-])c1cn2c(n1)OC[C@@H](OCc1ccc(-c3ccc(OC(F)(F)F)c(F)c3)cc1)C2 [compound 2, (6S)-6-{[3'-Fluoro-4'-(trifluoromethoxy)[1,1'-biphenyl]-4-yl]methoxy}-2-nitro-6,7-dihydro-5H-imidazo[2,1-b][1,3]oxazine] | 419 | > 513 µg·h/mL | 0.34 µM (≈ 0.154 µg/mL) | 0.03 µM (≈ 0.0136 µg/mL) | – | – | – | – | > 1
O=[N+]([O-])c1cn2c(n1)OC[C@@H](OCc1ccc(-c3ccc(OC(F)(F)F)c(F)c3)cn1)C2 [compound 22, (6S)-6-({5-[3-Fluoro-4-(trifluoromethoxy)phenyl]-2-pyridinyl}methoxy)-2-nitro-6,7-dihydro-5H-imidazo[2,1-b][1,3]oxazine] | 233 | 155 µg·h/mL | 1.3 µM (≈ 0.591 µg/mL) | 0.05 µM (≈ 0.0227 µg/mL) | – | 7600 ng/mL | 8.4 h | – | –
O=[N+]([O-])c1cn2c(n1)OC[C@@H](Oc1ccc(-c3ccc(OC(F)(F)F)cc3)cc1)C2 [compound 13, (6S)-2-Nitro-6-{[4'-(trifluoromethoxy)[1,1'-biphenyl]-4-yl]oxy}-6,7-dihydro-5H-imidazo[2,1-b][1,3]oxazine] | 8.1 | 347 µg·h/mL | 1.3 µM (≈ 0.548 µg/mL) | 0.05 µM (≈ 0.0211 µg/mL) | – | 1860 ng/mL | – | – | –

— patent EP2459571B1, “NITROIMIDAZOOXAZINES AND THEIR USES IN ANTI-TUBERCULAR THERAPY” (priority 2009, dated 2011)
